Patent US8557823B2, “Family of PFKFB3 inhibitors with anti-neoplastic activities” (Advanced Cancer Therapeutics, LLC, priority 2007, dated 2013)

Tests used:
[1] = tested on: A549 lung carcinoma cells; test: In vitro growth inhibition, A549; format: cell-based; conditions: human A549
Description: The K562, HL-60, MDA-MB231, and melanoma (CRL-11174) human cancer cell lines were purchased from ATCC (American Tissue Type Culture Collection, Manassas, Va., United States of America). HeLa, A549, Lewis Lung Carcinoma, MDA-MB231, and melanoma cells were grown in Dulbecco's Modified Eagle Medium (DMEM) (Hyclone, Logan, Utah, United States of America) supplemented with 10% fetal bovine serum (Hyclone, Logan, Utah, United States of America) and 50 μg/mL gentamicin sulfate (Invitrogen, Carlsbad, Calif., United States of America). The HL-60, K562, and Jurkat cell lines were grown in RPMI-1640 medium (Hyclone, Logan, Utah, United States of America) supplemented with 10% fetal bovine serum and 50 μg/mL gentamicin sulfate. […]
Cells were collected 48 hours post-treatment, and cell number and viability were determined by trypan blue exclusion. […]

[2] = Toxicity studies, highest tolerated dose; format: in vivo, mice; conditions: intraperitoneal (IP) injection in DMSO
[3] = tested on: MDA-MB231 human breast adenocarcinoma tumors; test: MDA-MB231 breast adenocarcinoma xenografts in Balb/c nude mice; format: in vivo; conditions: 0.07 mg/g IP, three daily injections followed by three days off
Description: FIG. 7B is a graph showing the effects of 3PO treatment on the growth of established MDA-MB231 breast adenocarcinoma tumor zenografts in Balb/c athymic mice. Tumors were measured daily using blunt end Vernier calipers, and mice with established tumors (130-190 mg) were blindly randomized into either a DMSO control group (•, n=14) or a 3PO treatment group (∘, n=13). Experimental mice were weighed and given intraperitoneal (i.p.) injections of either 50 μL DMSO or 0.07 mg/g 3PO in 50 μL DMSO according to a cyclical dosing regimen of three sequential daily injections followed by three off days for the duration of the study (14 days). Arrows (↓) represent control or 3PO administrations. […]
(§1) Exponentially growing MDA-MB231 and HL-60 cells were collected in appropriate medium, washed twice and resuspended in PBS at a concentration of 20×10^7 cells/mL. […] Body weight and tumor growth were monitored daily throughout the study. Tumor masses were determined by measurement with Vernier calipers using the formula: mass (mg)=[width (mm^2)×length (mm)]/2. […]
(§2) The first tumor model tested consisted of mouse Lewis Lung Carcinoma xenografts grown in C57/Blk6 mice. For this study, mice were given IP injections of either DMSO or the calculated dose of 1 once daily for the duration of the study (14 days). […]

[4] = tested on: HL-60 leukemia cell xenografts; test: HL-60 leukemia xenografts in Balb/c nude mice; format: in vivo; conditions: 0.07 mg/g IP, two daily injections followed by seven days off
Description: FIG. 7C is a graph showing the effects of 3PO treatment on the growth of established HL-60 acute promyelocytic leukemia xenografts in Balb/c athymic mice. Tumors were measured daily using blunt end Vernier calipers, and mice with established tumors (130-190 mg) were blindly randomized into either a DMSO control group (•, n=11) or a 3PO treatment group (∘, n=12). Experimental mice were weighed and given intraperitoneal (i.p.) injections of either 50 μL DMSO or 0.07 mg/g 3PO in 50 μL DMSO according to a cyclical dosing regimen of two sequential daily injections of DMSO or 3PO followed by seven day rest period for the duration of the study (14 days). Arrows (↓) represent control or 3PO administrations. Statistical difference was obtained after initial injection with a p-value<0.0001.
as §1, §2

O=C(/C=C/c1cccnc1)c1ccncc1 [Compound 1, 3-(3-pyridinyl)-1-(4-pyridinyl)-2-propen-1-one]
IC50 [1]: 24 µM | highest tolerated dose producing no phenotypic side effects [2]: 0.07 mg/g | maximum inhibition of xenograft growth compared to DMSO controls [3]: 66% | inhibition of tumor growth compared to DMSO controls [4]: > 74%
